Entries after “also recorded” stand apart in the source; their conditions may differ. Like-named read-outs stand apart in the source and are kept apart here.
Assays:
[1] = target: T1, HIV-RT (Human immunodeficiency virus type 1 group M subtype B, UniProt P03366); assay type: biochemical; details: for effet inhibiteur sur la HIV1-RT: qualitative, autoradiogram, aurothiopropanol 0 à 2 mM (Figure 7), AZT 0,1 »M à 1 mM (Figure 8)
T1 construct: Transcriptase inverse: l'enzyme active du point de vue enzymatique, purifiée, clonée, a été préparée dans Escherichia coli; made in house; host or cells: Escherichia coli
From the text: (§1) Transcriptase inverse: l'enzyme active du point de vue enzymatique, purifiée, clonée, a été préparée dans Escherichia coli à l'aide de la technique précédemment décrite par Hizi A., McGill C., Hugues G., Proc. Natl. Acad. Sci. USA 85, 1218-1222 (1988). Le dosage de la R.T. a été effectuée à l'aide de matrice d'ADN (au hasard et avec des séquences HIV) et de primer(s) marqué(s) (brins d'initiation) par radioactivité. Après formation de complexes entre la matrice d'ADN et les primers, la R.T. a été ajoutée et incubée. Diverses concentrations d'inhibiteur ont été ajoutées soit avant soie après que le, ou les complexes, aient été formés. L'initiation et l'élongation de la chaîne ont été étudiées à l'aide de P.A.G.E. à 20% [Shane D.L., Goodman M.F., Echols N.A., Nucleic Acids Res. 16, 1218-1222 (1988] et les produits analysés par autoradiographie. Différentes matrices et conditions ont été utilisées pour distinguer ces fonctions. En outre, de la R.T. disponible dans le commerce provenant du virus de myéloblastose aviaire a été également utilisée.
(§2) Le dosage de l'effet des inhibiteurs sur la R.T. était le suivant: • A) On prépare un mélange réactionnel de […] contenant: • . ADN matrice 10⁻⁸M • . ADN primer 4 x 10⁻¹⁰M/ADN primer 5' [³²P] • . 2 »l de tampon HIV-RT ([10x] (500 mM Tris-HCl • . pH 7,8; 60 mM MgCl₂; 10 mM dithiothréitol; 500 mM KCl); et • . de l'eau bidistillée pendant […] à 37°C. • B) On ajoute 1 unité de HIV-RT (une unité correspond à l'activité enzymatique qui incorpore 1 nmol de [³H] TMP en produit insoluble dans l'acide en 10 mn à 37°C avec du poly(A)-(dT)₁₅ comme substrat) pendant 10 min à 37°C. • C) On ajoute un mélange de désoxy nucléotide triphosphates (dXTPs) contenant 0,25 mM de chaque dXTP pour un volume de mélange final de 20 »l pendant 5 minutes à 37°C. • D) Pour tester le ou les inhibiteurs, diverses concentrations de ces produits (sous un volume constant) sont ajoutées (selon Etape B) au mélange des dXTPs. Le mélange réactionnel est incubé à 37°C pendant […]. • E) On fait cesser la réaction par de l'EDTA 10 nM dans le formamide à 90%. • F) Des échantillons sont chauffés à 90°C pendant 5 mn et les produits séparés par électrophorèse sur gels de Polyacrylamide à 20% en présence d'urée. • G) Les variations dans l'élongation, la synthèse, etc... sont détectées par autoradiographie et testées par comparaison avec des "témoins" sans inhibiteur.
Le mélange est incubé pendant 5 mn à 37°C. • dans le cas (c) l'enzyme, l'hybride primer-matrice et 2 des 4 désoxy-ribonucléotides sont ajoutés et incubés pendant 5 mn à 37°C.

[2] = tested on: AMV-RT; test: AMV reverse transcriptase inhibition, primer extension, PAGE and autoradiography; assay type: biochemical, virus de myéloblastose aviaire; details: for effet sur la R.T. (AMV): qualitative
From the text: as §1, §2

[3] = target: T2, DNA polymérase alpha de placenta humain (Homo sapiens, UniProt P09884); test: Effect on human DNA polymerase alpha; assay type: biochemical
T2 construct: la DNA polymérase alpha de placenta humain; tissue Dr Olga Lavrik, Novosibirsk (gift); host or cells: human placenta

[4] = target: T3, DNA polymérase alpha de foie de rat (Rattus norvegicus, UniProt O89042); test: Effect on rat DNA polymerase alpha; assay type: biochemical; details: partially purified enzyme; sensitive only above the value
T3 construct: la DNA polymérase alpha de foie de rat partiellement purifiée; tissue Dr A M de Recondo, Villejuif (gift); host or cells: rat liver
T3 sequence (O89042 1-1451): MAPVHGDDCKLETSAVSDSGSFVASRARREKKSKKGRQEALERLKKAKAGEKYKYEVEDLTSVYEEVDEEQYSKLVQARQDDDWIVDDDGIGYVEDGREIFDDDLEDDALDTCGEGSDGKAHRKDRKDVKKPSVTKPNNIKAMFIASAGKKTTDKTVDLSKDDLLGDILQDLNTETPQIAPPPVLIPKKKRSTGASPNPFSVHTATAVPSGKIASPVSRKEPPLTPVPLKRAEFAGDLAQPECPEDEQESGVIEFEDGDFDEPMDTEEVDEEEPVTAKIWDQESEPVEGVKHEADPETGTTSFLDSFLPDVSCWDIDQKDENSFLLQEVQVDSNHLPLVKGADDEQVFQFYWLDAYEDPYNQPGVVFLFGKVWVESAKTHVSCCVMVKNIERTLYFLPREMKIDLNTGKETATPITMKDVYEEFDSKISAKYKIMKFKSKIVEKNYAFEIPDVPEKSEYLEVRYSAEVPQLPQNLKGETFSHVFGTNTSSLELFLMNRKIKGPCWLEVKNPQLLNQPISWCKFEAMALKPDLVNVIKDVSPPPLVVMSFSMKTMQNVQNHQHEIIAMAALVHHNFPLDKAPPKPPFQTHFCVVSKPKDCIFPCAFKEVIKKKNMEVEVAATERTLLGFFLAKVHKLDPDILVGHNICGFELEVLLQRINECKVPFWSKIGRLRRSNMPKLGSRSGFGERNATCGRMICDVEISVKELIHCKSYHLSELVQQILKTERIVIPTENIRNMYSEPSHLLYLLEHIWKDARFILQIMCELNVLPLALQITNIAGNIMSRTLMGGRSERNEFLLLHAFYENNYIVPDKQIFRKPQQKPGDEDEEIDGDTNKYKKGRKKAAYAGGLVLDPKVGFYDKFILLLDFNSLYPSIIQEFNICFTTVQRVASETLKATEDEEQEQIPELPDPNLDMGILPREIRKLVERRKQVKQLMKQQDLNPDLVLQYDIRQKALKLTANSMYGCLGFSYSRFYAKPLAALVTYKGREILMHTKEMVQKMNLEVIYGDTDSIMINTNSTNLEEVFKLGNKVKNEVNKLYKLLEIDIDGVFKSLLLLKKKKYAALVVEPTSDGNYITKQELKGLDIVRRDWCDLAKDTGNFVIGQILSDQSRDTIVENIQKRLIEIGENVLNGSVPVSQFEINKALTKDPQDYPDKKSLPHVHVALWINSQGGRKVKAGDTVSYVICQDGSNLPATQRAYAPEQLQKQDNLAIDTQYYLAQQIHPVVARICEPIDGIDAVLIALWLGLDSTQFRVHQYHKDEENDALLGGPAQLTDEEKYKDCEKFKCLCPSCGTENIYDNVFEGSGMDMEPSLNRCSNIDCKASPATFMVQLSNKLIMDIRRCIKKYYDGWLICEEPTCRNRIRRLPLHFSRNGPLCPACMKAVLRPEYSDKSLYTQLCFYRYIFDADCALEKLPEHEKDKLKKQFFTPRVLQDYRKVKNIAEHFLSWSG

[5] = target: T4, DNA polymérase I de Escherichia coli (Escherichia coli, UniProt P00582); test: Effect on E. coli DNA polymerase I; assay type: biochemical
T4 construct: purchased BRL

[6] = target: association enzyme-matrice (HIV1-RT / hybride primer-matrice) (Human immunodeficiency virus type 1 group M subtype B, UniProt P03366); details: enzyme 0,15 nM à 1nM; aurothioglucose 0,1 »M à 100 »M
From the text: On aussi effectué la filtration de l'enzyme et de l'hybride primeur-matrice en présence de concentration croissante de l'aurothioglucose. Les conditions expérimentales sont celles décrites précédemment.

[7] = tested on: glycosylation de gp120 ou gp41; test: Effect on viral glycoprotein synthesis (glycosylation) in infected cells; assay type: cell-based, HIV-1; details: for minimal effective concentration: Human immunodeficiency virus 1, read-out: concentration efficace sur la glycosylation
From the text: Effets de médicaments sur la synthèse de glycoprotéines: des cellules CEM ou MT-4 ont été infectées par HIV-1; 4 heures après l'infection, une moitié des cellules a été marquées avec [2³H]Man ou [6³H]GlcNAc à 2,5-5,9 »Ci. Les milieux ont été changés et de l'inhibiteur frais (potentiel) et 2,5 »Ci (ou 5 »Ci) de l'isotope approprié ont été ajoutés. Les cellules ont été lysées à trois et sept jours après l'infection et les lysats cellulaires ont été clarifiées par centrifugation à 12 000 g; qp120 et gp41 ont été l'une et l'autre isolées par immunoprécipitation sur colonnes et les produits, analysés sur gels de polyacrylamide à 12% et fluorographie [Kumarasamy R & Blough H.A., Biochem. Biophys. Res. Commun. 109, 1108-1115 (1982)]. Les virus ont été récoltés et purifiés par centrifugation à vitesse contrôlée sur gradients préformés de citrate de sodium ou métrazamide à 5-40%, et analysés de façon similaire.

[8] = Cytotoxicity (cell doubling time, trypan blue exclusion); assay type: cell-based; details: human, alex and mt-4 cells; cytotoxic at concentrations exceeding the value; read-out: concentrations cytotoxiques
From the text: (§3) Il a également été montré que les composés de l'invention sont moins toxiques que leurs analogues de base, en mesurant, à l'aide du microscope photonique, le temps de duplication cellulaire et l'exclusion du bleu trypan.

[9] = tested on: cellules ALEX et MT-4; test: as above; assay type: cell-based
From the text: as §3

T4 sequence (P00582 whole entry): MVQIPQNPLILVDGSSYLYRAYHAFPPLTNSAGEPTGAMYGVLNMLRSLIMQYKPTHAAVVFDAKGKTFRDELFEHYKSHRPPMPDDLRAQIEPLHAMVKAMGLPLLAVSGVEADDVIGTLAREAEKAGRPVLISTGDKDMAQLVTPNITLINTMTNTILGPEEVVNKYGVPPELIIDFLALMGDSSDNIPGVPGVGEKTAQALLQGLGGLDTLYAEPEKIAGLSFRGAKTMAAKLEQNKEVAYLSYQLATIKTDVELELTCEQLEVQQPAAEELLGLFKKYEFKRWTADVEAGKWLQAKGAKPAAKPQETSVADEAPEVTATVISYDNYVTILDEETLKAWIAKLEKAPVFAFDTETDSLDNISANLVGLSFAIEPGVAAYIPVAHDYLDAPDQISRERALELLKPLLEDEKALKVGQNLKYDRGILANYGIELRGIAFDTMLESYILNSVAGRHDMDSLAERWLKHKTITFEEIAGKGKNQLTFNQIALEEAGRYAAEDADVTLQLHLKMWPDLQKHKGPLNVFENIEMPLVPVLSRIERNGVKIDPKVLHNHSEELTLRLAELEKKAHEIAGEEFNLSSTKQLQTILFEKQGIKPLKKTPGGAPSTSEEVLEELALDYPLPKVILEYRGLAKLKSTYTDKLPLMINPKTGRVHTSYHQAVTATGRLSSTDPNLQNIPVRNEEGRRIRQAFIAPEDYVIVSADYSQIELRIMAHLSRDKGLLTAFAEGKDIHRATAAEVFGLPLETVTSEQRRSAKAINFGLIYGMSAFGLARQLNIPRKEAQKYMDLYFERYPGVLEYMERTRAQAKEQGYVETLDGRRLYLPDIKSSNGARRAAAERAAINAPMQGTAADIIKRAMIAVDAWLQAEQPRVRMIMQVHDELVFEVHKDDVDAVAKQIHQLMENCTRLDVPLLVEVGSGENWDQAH
T2 sequence (P09884 whole entry): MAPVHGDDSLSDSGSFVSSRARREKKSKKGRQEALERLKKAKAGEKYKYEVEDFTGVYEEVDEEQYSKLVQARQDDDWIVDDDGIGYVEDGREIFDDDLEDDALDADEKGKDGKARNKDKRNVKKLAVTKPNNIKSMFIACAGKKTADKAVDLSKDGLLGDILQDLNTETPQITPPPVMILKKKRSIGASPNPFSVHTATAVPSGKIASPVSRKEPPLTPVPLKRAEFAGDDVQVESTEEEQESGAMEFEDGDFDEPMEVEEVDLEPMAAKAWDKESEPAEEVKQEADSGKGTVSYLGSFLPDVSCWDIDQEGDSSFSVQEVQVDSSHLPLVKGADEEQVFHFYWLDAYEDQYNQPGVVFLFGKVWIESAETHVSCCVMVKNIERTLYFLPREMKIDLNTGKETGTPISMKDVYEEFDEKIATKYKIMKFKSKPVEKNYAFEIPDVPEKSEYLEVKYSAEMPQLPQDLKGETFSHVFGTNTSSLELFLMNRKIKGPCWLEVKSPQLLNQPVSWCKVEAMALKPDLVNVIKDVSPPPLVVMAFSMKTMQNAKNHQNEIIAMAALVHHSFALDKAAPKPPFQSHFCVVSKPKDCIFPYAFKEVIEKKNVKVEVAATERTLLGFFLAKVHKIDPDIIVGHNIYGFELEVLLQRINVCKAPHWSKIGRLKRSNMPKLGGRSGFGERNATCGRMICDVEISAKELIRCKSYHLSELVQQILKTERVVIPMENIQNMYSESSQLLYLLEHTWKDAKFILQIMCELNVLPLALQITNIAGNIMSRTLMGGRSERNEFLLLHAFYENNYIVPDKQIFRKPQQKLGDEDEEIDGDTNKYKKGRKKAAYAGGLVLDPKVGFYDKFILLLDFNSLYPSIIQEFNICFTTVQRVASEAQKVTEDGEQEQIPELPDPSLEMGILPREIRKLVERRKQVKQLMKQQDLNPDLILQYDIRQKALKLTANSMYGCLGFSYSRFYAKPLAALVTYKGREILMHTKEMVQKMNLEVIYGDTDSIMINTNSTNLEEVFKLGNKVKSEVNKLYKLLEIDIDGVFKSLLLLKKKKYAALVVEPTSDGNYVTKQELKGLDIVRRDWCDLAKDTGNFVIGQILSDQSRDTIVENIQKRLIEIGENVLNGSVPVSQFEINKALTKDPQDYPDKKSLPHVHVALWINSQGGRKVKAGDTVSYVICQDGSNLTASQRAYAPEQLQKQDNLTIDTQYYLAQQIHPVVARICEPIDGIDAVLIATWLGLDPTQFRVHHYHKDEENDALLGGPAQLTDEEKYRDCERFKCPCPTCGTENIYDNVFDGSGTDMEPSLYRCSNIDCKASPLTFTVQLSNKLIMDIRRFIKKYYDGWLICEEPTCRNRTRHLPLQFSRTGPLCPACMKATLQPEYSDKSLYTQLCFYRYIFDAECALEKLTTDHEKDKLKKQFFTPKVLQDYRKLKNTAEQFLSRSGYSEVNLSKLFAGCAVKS
T2 sequence (Q14181 whole entry partner): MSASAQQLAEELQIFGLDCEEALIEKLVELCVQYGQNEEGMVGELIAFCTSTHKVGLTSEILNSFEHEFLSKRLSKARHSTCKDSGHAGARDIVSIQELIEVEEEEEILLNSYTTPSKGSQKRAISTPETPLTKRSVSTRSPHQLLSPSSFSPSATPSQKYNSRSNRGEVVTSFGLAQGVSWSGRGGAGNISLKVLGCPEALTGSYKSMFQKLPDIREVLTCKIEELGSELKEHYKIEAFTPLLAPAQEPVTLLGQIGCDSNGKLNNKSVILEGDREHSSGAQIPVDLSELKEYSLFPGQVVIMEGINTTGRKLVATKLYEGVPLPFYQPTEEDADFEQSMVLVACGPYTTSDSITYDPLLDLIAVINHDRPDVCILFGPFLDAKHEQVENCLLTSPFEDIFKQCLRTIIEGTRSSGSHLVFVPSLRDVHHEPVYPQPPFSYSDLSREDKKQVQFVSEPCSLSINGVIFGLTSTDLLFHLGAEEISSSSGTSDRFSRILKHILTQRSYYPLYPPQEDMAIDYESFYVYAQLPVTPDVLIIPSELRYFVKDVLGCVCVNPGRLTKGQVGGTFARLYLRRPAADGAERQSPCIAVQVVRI
T2 sequence (P49642 whole entry partner): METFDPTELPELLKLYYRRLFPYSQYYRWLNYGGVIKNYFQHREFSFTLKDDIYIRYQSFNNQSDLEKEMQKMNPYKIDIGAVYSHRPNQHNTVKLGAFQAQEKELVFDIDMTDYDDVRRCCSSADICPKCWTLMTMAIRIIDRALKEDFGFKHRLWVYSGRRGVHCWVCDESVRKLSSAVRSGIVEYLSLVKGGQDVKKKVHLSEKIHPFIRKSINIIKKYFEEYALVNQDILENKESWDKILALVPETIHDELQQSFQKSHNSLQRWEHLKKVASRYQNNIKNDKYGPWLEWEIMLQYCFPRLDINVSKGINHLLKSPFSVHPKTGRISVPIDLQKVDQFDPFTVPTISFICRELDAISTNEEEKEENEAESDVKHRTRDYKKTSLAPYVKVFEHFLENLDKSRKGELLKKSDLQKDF
T2 sequence (P49643 whole entry partner): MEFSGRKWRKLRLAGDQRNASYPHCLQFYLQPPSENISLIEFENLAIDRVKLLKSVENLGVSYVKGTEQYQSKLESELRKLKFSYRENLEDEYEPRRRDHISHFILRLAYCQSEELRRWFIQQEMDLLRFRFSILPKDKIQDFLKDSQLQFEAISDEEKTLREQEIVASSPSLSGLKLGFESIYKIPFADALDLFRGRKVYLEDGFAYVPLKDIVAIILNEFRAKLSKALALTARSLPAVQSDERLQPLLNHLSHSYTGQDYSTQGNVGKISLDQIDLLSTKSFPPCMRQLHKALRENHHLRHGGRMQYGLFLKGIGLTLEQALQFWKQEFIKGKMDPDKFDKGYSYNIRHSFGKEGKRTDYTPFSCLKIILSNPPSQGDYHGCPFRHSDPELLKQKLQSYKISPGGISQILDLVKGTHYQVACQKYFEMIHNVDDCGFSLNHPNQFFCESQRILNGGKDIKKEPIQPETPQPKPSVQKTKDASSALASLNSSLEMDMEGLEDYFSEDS

OC[C@H]1O[C@@H]([S][Au])[C@H](O)[C@@H](O)[C@@H]1O [1-aurothioglucose, 1-bêta-D-aurothioglucose]
inhibition en utilisant des matrices d'ARN ([1]; RNA templates compared with DNA templates, Figure 3): résultats comparables | sensibilité de l'enzyme complexée à la matrice (b) et en phase d'élongation (c) ([1]; cases (b) and (c) compared): la même sensibilité | effets combinés de la zidovudine (AZT) et de l'aurothioglucose ([1]; combined with zidovudine (AZT)): additifs et qu'il existe une action synergique | quantité efficace pour bloquer le complexe HIV-R.T.-Substrat ([1]; complexe HIV-R.T.-Substrat à 40 nm, Figure 1): 3 »m | diminution de la constante d'inhibition (Ki) ([1]; free enzyme, case (a), compared with cases (b) and (c)): 33% | activité par rapport à l'AZT triphosphate ([1]; qualitative comparison): considérablement plus actif | effet sur l'élongation des chaînes d'ADN par l'AMV-RT ([2]; Figure 5, lane 2, added after polymerisation of six nucleotides): inhibition de l'élongation de la chaîne | concentrations nécessaires pour bloquer AMV-RT ([2]; compared with HIV-RT, Figure 2): concentrations supérieures | activité inhibitrice sur les DNA polymèrases humaines ([3]; in vitro): activité inhibitrice faible | concentration en drogue à laquelle la polymérase est sensible ([3]; insensitive at concentrations lower than or equal to the value): > 1 mM | concentration en aurothioglucose à laquelle la polymérase est sensible [4]: > 100 µM | inhibition de la DNA-polymérase-1 d'Escherichia Coli ([5]; Figure 6, autoradiogram): inhibition | concentration en aurothioglucose à laquelle la polymérase est sensible ([5]; sensitive above the value): > 50 µM | association enzyme-matrice [6]: affaiblie

Cc1cn([C@H]2C[C@H](N=[N+]=[N-])[C@@H](COP(=O)(O)OP(=O)(O)OP(=O)(O)O)O2)c(=O)[nH]c1=O [AZT phosphorylé, 3'-Azido-DTTP, reference compound]
effet inhibiteur sur la HIV1-RT [1]: inhibition

OC[C@H]1S[C@@H](O)[C@H](O)[C@@H](O)[C@@H]1O [5-thioglucose, 5-bêta-D-thioglucose]
effet inhibiteur sur la HIV1-RT [1]: n'ont pas présenté d'effet | effet inhibiteur sur la HIV1-RT ([1]; listed as 5-bêta-D-thioglucose): aucun effet | effet sur la R.T. (AMV) [2]: n'ont pas présenté d'effet | activité à l'encontre de la glycosylation de gp120 ou gp41 [7]: actifs | minimal effective concentration [7]: ~0.0035 µM | MCC [8]: > 2 mM | toxicité vis-à-vis des cellules [9]: trop toxiques

OC[C@H]1O[C@@H](S)[C@H](O)[C@@H](O)[C@@H]1O [1-thioglucose, 1-bêta-D-thioglucose]
effet inhibiteur sur la HIV1-RT [1]: n'ont pas présenté d'effet | effet inhibiteur sur la HIV1-RT ([1]; listed as 1-bêta-D-thioglucose): aucun effet | effet sur la R.T. (AMV) [2]: n'ont pas présenté d'effet | activité à l'encontre de la glycosylation de gp120 ou gp41 [7]: actifs | minimal effective concentration [7]: ~0.0035 µM | MCC [8]: > 2 mM | toxicité vis-à-vis des cellules [9]: trop toxiques

aurothiopropanol
effet inhibiteur sur la HIV1-RT [1]: inhibition; also recorded: effet inhibiteur

Source: patent EP0427843B1, “SPECIFIC INHIBITOR FOR RETROVIRUS REVERSE TRANSCRIPTASE, AND ITS APPLICATION AS A MEDICAMENT” (BLOUGH, Herbert A., Dr., priority 1989, dated 1990)
